Experimental data from PMC12311865, “In Vitro Evaluation of the Potential Interactions of Zearalenone-14-sulfate and Zearalenone-14-glucuronide with Human Cytochrome P450 Enzymes, Organic Anion Transporting Polypeptides, and ATP-Binding Cassette Multidrug Transporters” (ACS Omega, 2025).

How the values were obtained:
CYP2C9 = biological target: T1, CYP2C9 (Homo sapiens, UniProt P11712); test: in vitro; type: biochemical; conditions: human, pH 7.5
T1 construct: purchased Merck
Procedure: Inhibitory actions of ZEN conjugates on CYP2C9 and CYP3A4 enzymes were examined employing CypExpress Cytochrome P450 human kits. , Briefly, incubates (200 μL) contained the substrate (5 μM; diclofenac for CYP2C9 and testosterone for CYP3A4), the CypExpress reagent (6 mg/mL of CYP2C9 kit or 15 mg/mL of CYP3A4 kit; also including the glucose-6-phosphate dehydrogenase enzyme), and the test compounds (each 20 μM) in 0.05 M potassium phosphate buffer (pH 7.5). CYP3A4 assay was supplemented with additional G6P and NADP^+ (both 400 μM). Enzyme assays were started with the addition of the enzyme. After 120 min (CYP2C9) or 180 min (CYP3A4) incubation at 700 rpm and 30 °C in a thermomixer, the reaction was stopped with 100 μL of ice-cold methanol. Then, the samples were centrifuged for 10 min at 14,000g and room temperature. The supernatants were gently removed and directly analyzed by HPLC (see Section ).
Diclofenac and 4′-hydroxydiclofenac (CYP2C9 assay) were quantified using the previously reported HPLC-UV assay, , without modification. Briefly, the isocratic elution, with 1.0 mL/min flow rate, was performed with orthophosphoric acid (6 mM) and acetonitrile (48:52 v/v %) mobile phase, applying a Security Guard (C8, 4.0 × 3.0 mm; Phenomenex, Torrance, CA) precolumn and a Mediterranea Sea8 (C8, 150 × 4.6 mm, 5 μm; Teknokroma, Barcelona, Spain) analytical column at room temperature (injected volume: 20 μL). Diclofenac and 4′-hydroxydiclofenac were detected at 275 nm.

MDR1 = biological target: T2, MDR1 (Homo sapiens, UniProt P08183); test: MDR1-mediated NMQ vesicular transport (Sf9 membrane vesicles); type: biochemical; conditions: human; 30 μM; NMQ 5 μM; read-out: inhibition of MDR1-mediated, ATP-dependent uptake of NMQ
T2 construct: made in house; host or cells: Sf9 insect cells (baculovirus)
T2 sequence (P08183 whole entry): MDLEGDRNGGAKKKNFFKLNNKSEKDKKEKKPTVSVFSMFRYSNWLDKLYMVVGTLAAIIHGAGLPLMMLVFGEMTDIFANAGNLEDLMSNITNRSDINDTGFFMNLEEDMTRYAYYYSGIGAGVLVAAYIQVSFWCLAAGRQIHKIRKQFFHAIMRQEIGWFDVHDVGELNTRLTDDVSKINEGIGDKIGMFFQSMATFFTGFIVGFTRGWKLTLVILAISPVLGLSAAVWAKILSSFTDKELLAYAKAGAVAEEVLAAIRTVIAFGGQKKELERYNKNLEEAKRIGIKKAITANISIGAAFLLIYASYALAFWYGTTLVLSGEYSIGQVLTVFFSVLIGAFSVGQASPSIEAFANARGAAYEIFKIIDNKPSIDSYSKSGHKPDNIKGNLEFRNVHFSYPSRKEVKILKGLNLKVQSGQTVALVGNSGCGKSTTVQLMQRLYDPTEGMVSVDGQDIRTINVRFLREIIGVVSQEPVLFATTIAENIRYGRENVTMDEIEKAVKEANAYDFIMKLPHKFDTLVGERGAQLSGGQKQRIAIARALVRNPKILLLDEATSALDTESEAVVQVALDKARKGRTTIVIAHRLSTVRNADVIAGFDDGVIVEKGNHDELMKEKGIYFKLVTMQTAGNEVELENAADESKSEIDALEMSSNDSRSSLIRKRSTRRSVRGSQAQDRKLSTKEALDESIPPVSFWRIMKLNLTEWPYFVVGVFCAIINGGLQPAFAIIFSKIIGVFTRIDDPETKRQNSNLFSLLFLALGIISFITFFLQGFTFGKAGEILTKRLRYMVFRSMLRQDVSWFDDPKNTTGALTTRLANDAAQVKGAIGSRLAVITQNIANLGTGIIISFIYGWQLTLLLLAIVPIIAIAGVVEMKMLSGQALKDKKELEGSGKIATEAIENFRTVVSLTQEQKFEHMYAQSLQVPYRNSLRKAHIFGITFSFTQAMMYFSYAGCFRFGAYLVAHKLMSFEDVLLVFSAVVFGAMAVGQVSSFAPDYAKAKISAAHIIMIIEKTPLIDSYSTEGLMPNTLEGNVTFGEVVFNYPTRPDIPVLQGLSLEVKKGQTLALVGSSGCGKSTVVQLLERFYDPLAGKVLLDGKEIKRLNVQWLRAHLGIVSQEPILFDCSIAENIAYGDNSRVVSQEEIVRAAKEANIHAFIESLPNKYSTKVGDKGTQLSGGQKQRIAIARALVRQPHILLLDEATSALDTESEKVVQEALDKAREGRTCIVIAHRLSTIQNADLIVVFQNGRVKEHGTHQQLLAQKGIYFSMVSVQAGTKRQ
Procedure: Experiments were performed in insect membrane vesicles, as described previously. Briefly, human MDR1, BCRP, and MRP2 were expressed in Sf9 insect cells by baculoviruses. On the third day of infection, cells were collected and membrane vesicles were obtained by mechanical disruption and differential centrifugation. To get full activity for BCRP, the cholesterol levels of the vesicles were adjusted to the level of mammalian membranes. Vesicles were stored at −80 °C, and the total protein content of the preparations was measured by the Lowry method (used as a reference for the quantity). […] A 100 μL volume of fluorescence stabilizer was added to the samples (DMSO for LY, 0.1 M H2SO4 for NMQ, and 0.1 M NaOH for CDCF). Fluorescence of samples was measured by plate readers (Victor X3 and Enspire PerkinElmer; Waltham, MA) at appropriate wavelengths (filters in the Victor X3 reader were 405/535 nm for LY and 492/635 nm for CDCF; while in the Enspire reader, NMQ was measured at 360/430 nm excitation/emission wavelengths). ABC-related transport was calculated by subtracting passive uptake measured without Mg-ATP from values measured in the presence of Mg-ATP.

T1 sequence (P11712 whole entry): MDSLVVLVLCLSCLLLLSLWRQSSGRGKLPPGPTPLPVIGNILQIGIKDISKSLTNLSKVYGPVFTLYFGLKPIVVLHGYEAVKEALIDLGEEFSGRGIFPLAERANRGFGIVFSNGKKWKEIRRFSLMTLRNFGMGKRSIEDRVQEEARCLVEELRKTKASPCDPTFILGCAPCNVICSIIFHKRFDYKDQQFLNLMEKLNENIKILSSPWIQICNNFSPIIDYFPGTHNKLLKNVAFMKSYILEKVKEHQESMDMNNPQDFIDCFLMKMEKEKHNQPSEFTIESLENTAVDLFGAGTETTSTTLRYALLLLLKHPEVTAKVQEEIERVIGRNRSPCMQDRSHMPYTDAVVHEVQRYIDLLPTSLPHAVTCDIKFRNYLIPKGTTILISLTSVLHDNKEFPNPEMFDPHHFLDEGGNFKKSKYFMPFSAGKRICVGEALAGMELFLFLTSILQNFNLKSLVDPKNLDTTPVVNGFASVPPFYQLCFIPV

| Structure (SMILES) | inhibition of CYP2C9 (decrease in metabolite formation) (CYP2C9) | inhibition at 10 min, 30 μM (MDR1) |
| --- | --- | --- |
| Nc1ccc(S(=O)(=O)Nc2ccnn2-c2ccccc2)cc1 [sulfaphenazole, reference compound] | more than 90% |  |
| COc1ccc(CCN(C)CCCC(C#N)(c2ccc(OC)c(OC)c2)C(C)C)cc1OC (centres unmarked) [verapamil, reference compound] |  | 97% |
